Reference: patent US8022208B2, “Benzene derivative or salt thereof” (Astellas Pharma Inc., priority 2005, dated 2011)

What was measured:
human plasma = experiment: Extrinsic coagulation time (PT) in human plasma; details: HemosIL RecombiPlasTin
Experimental: 3) Extrinsic Coagulation Time (PT):
2 μl of a test compound dissolved in DMSO or DMSO alone, and 50 μl of physiological saline were added to 50 μl of human plasma warmed at 37° C. for 1 minute, then 100 μl of HemosIL RecombiPlasTin (Instrumentation Laboratory) was added, and the coagulation time was measured. For measuring the coagulation time, used was Amelung's KC10A. The CT2 value (the concentration for 2-fold prolongation of the coagulation time with DMSO) was calculated through linear regression, by plotting the relative value (fold) of the coagulation time to the control and the test compound concentration.

human factor Xa = molecular target: T1, human factor Xa (Homo sapiens, UniProt P00742); experiment: Enzyme inhibition by synthetic substrate method (S-2222); type: biochemical; details: human factor Xa 0.025 U/ml, synthetic substrate S-2222, pH 8.4, 37° C., 10 minutes
T1 construct: purchased Enzyme Research Labs
Experimental: 2) Test of Measuring Enzyme Inhibition by Synthetic Substrate Method:
25 μl of a reaction buffer (pH 8.4), 5 μl of a test compound dissolved in DMSO or DMSO alone, and 10 μl of a synthetic substrate, 2 mM S-2222 (Chromogenix) were added to a 96-well microplate, then 10 μl of 0.025 U/ml human factor Xa was added thereto, and reacted at 37° C. for 10 minutes, and then the absorbance change at 405 nm was measured with Molecular Devices' Spectramax 340PC^384, and the IC50 value was calculated.

mouse plasma = experiment: Ex vivo coagulation time with mice (oral administration), extrinsic coagulation time (PT); type: in vivo, male ICR mice; details: oral 100 mg/kg, 30 minutes after administration
Experimental: 4) Test of Measuring Ex Vivo Coagulation Time with Mice (Oral Administration):
To test animals of male ICR mice (body weight, about 40 g, SLC) that had been fasted for 12 hours or longer, a solution or suspension of a test compound dissolved in 0.5% methyl cellulose was forcedly orally administered (100 mg/kg), using a feeding needle; and after 30 minutes and after 2 hours, under anesthesia with diethyl ether, 1 ml of blood was collected from the mice through their postcaval vein in 3.8% sodium citrate to be 1/10 by volume, and centrifuged at 12000 rpm for 3 minutes to separate plasma therefrom. The extrinsic coagulation time (PT) and the intrinsic coagulation time (APTT) for this plasma were measured according to the following methods a) and b).
a) Extrinsic Coagulation Time (PT):
50 μl of the mouse plasma was warmed at 37° C. for 1 minute, and 100 μl of HemosIL RecombiPlasTin was added, and the coagulation time was counted. For measuring the coagulation time, used was Amelung's KC10A. The mouse plasma coagulation time with no test compound administration was control; and the coagulation time prolonging activity of the test compound was represented by a relative value to the control, 1.

T1 sequence (P00742 235-488 limits assumed): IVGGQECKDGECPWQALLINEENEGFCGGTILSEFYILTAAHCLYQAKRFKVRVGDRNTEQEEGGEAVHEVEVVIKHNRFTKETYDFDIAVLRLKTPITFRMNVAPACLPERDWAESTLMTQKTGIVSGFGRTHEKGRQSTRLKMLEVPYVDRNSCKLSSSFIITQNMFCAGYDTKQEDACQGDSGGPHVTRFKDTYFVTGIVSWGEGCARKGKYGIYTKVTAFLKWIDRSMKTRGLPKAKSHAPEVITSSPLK
T1 sequence (P00742 41-179 partner limits assumed): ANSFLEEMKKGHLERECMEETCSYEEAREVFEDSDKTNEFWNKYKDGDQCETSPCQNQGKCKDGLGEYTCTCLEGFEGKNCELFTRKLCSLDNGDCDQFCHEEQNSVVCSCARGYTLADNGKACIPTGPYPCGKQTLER

Compound	CT2 value (the concentration for 2-fold prolongation of the coagulation time with DMSO) (human plasma) [µM]	IC50 (human factor Xa) [nM]	coagulation time prolonging activity (relative value to the control, 1) (mouse plasma) [times]
Cl.Cn1ccc(=O)c(-c2ccc(C(=O)Nc3c(O)cccc3C(=O)Nc3ccc(Cl)cn3)cc2)c1 [Example 1, N-(5-chloropyridin-2-yl)-3-hydroxy-2-{[4-(1-methyl-4-oxo-1,4-dihydropyridin-3-yl)benzoyl]amino}benzamide hydrochloride]	0.34	6.7	
CN(C)CCn1cccc(-c2ccc(C(=O)Nc3c(O)cccc3C(=O)Nc3ccc(Cl)cn3)cc2)c1=O.Cl [Example 10]			3.3
Cn1cccc(-c2ccc(C(=O)Nc3c(O)cccc3C(=O)Nc3ccc(Cl)cn3)cc2)c1=O [Example 30]		8.3	
Cl.O=C(Nc1c(O)cccc1C(=O)Nc1ccc(Cl)cn1)c1ccc(-c2cccn(CCN3CCCOCC3)c2=O)cc1 [Example 42]	0.65		
CN1CCC(OCCn2cccc(-c3ccc(C(=O)Nc4c(O)cc(Cl)cc4C(=O)Nc4ccc(Cl)cn4)cc3)c2=O)CC1.Cl [Example 78]			3.9
